Laboratory results as given in article PMC4279406, “Simultaneous targeting of PI3Kδ and a PI3Kδ-dependent MEK1/2-Erk1/2 pathway for therapy in pediatric B-cell acute lymphoblastic leukemia” (Oncotarget, 2014).

Legend:
[1] = system: PDK1 and MEK1/2 association in Raji cells; assay: PDK1 immunoprecipitation, association with MEK1/2; format: cell-based, human; details: 1 μM, 1 h, anti-PDK1 immunoprecipitation
Experimental: Figure 5 Inhibition of Erk1/2 phosphorylation by X-370 contributed to its antiproliferative activity (A-C) X-370 inhibited Erk1/2 phosphorylation via PI3K-PDK1-MEK1/2 cascade but not the PI3K-Gab1 positive feedback loop. (A) Raji and SU-DHL-6 cells were exposed to 1 μM X370 for 3 h and protein fraction from cellular membrane was separated using Native Membrane Protein Extraction Kit and probed. WCL: whole cell lysate. (B) Inhibition of PDK1 or MEK1/2 abrogated Erk1/2 phosphorylation. Cells were treated with pharmacological inhibitors of Raf (AZ 628, PLX4032), MEK1/2 (AZD6244), p90RSK (BI-D1870), PI3Kδ (X-370), PDK1 (BX-912), Akt (MK-2206), mTOR (AZD8055) or mTORC1 (Rapamycin) respectively and indicated proteins were detected. (C) X-370 disrupted the association between PDK1 and MEK1/2. Raji cells were treated with 1 μM X370 for 1 h and cell lysates were immunoprecipitated with anti-PDK1 antibody and indicated proteins were detected. WCL: whole cell lysate. […] (E) Raji and Raji MEK DD cells were treated with X-370 for 72 h and cell proliferation was detected by CCK-8 assay. (F) Raji MEK DD cells were treated with X-370 and AZD6244 and cell proliferation was detected by CCK-8 assay. Data were show as mean ± SD of three independent experiments. *: p < 0.05 determined by t-tests at each data point. […]

Raji-R cells = assay: Proliferation of rituximab-resistant Raji-R cells (CCK-8); format: cell-based, human
Experimental: Raji and SU-DHL-6 cells were treated with X-370 for 1 h (left panel) or treated with 0.5 μM X-370 for indicated times (middle panel). Right panel, Raji cells were incubated in fresh medium following treatment with 0.5 μM X-370 for 1 h. Indicated proteins were detected. (B) Raji-R (the rituximab-resistant derivatives of Raji cells) cells were resistant to X-370. The activity of X-370 on the proliferation of Raji parent and Raji-R cells was determined by CCK-8 assay as described in the methods section. (C) X-370 blocked phosphorylation of Akt but not Erk1/2 in Raji-R cells. Raji-R cells were treated with X-370 for 1h and indicated proteins were detected. Data shown are representative from three independent experiments.
Cell viability was assessed using Cell Counting Kit (CCK-8, Dojindo, Japan) following the manufacturer's protocol and OD values were measured with a Spectramax M5 plate reader (Molecular Devices, Sunnyvale, CA)[45].

[2] = system: PI3Kβ (LPA-stimulated MEF cells); assay: LPA-induced Akt phosphorylation in MEF cells; format: cell-based, murine; details: up to 0.5 μM; LPA 10 μM; 1 h pre-incubation
Experimental: In fibroblasts, signals from the insulin-like growth factor 1 (IGF-1) receptor are mediated by PI3Kα, while lysophosphatidic acid (LPA) stimulates G-protein coupled receptor (GPCR) signals via PI3Kβ[26]. After being pre-incubated with X-370, murine embryonic fibroblasts cultured in serum-free medium were stimulated with IGF-1 or LPA. […] Either PI3Kδ or PI3Kγ can be activated in THP-1 monocytes dependent on the stimulating ligand, among which macrophage colony stimulating factor (M-CSF/CSF-1) activates RTK-coupled PI3Kδ, while monocyte chemoattractant protein-1 (MCP-1) activates PI3Kγ [24]. Accordingly, THP-1 cells cultured in serum-free medium were stimulated with MCP-1 or M-CSF in the presence of X-370 and phosphorylated Akt was measured.
Cell lysates were probed with indicated antibodies. The IC50 values were calculated based on relative band intensity measured with ImageQuant™ TL (GE Healthcare Life Sciences, Piscataway, NJ) (B). Data shown are mean values from three independent experiments. (C, D, E, F) X-370 blocked stimuli-triggered PI3Kδ activation. MEF cells and THP-1 were starved in serum-free medium for 12 h or 4 h respectively and X-370 were added for an additional 1 h treatment following stimulation of IGF-1 at 100 ng/ml for MEF cells (C), LPA at 10 μM for MEF cells (D), MCP-1 at 100ng/ml for THP-1 (E) and M-CSF at 50 ng/ml for THP-1 (F). […]

Compound: O=C(N1CCCC1)N1CCC(n2cnc3c(-n4c(C(F)F)nc5ccccc54)nc(N4CCOCC4)nc32)CC1 [X-370]
- association between PDK1 and MEK1/2 [1]: dissociation of MEK1/2 and PDK1
- sensitivity of proliferation compared to parental Raji cells (Raji-R cells): resistant
- LPA-induced Akt phosphorylation [2]: partially inhibited
